Laboratory results: the supplement of paper PMC10307832

Key:
Assay in all cases: relative viability (nuclei count vs DMSO), 5 days (fraction); higher = more cells survive
BAY61-3606 + Lapatinib = compound: COC1=C(C=C(C=C1)C2=CC3=NC=CN3C(=N2)NC4=C(C=CC=N4)C(=O)N)OC [BAY61-3606] + CS(=O)(=O)CCNCc1ccc(-c2ccc3ncnc(Nc4ccc(OCc5cccc(F)c5)c(Cl)c4)c3c2)o1 [Lapatinib] (partner 2 µM)
Summary of the method: (§1)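 Nuclei were stained with Hoechst during a one-step fixation (final 0.05% Triton X-100, 1% formaldehyde, 1 ug/ml Hoechst) carried out 5 days after dosing, then counted on 4× images. The cells, lung cancer lines in 1536-well plates, had been dosed by pin tool the day after seeding with one drug alone or a fixed anchor-drug dose plus five library-drug doses (not always all listed) in √10 steps. Relative viability is the nuclei count in treated wells divided by that in vehicle wells, and each value is the median of duplicate plates.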

Doxorubicin + Tozasertib = compound: COc1cccc2c1C(=O)c1c(O)c3c(c(O)c1C2=O)C[C@@](O)(C(=O)CO)C[C@@H]3O[C@H]1C[C@H](N)[C@H](O)[C@H](C)O1 [Doxorubicin] + Cc1cc(Nc2cc(N3CCN(C)CC3)nc(Sc3ccc(NC(=O)C4CC4)cc3)n2)n[nH]1 [Tozasertib] (partner 0.1 µM)
Summary of the method: as §1

Doxorubicin + Alpelisib = compound: COc1cccc2c1C(=O)c1c(O)c3c(c(O)c1C2=O)C[C@@](O)(C(=O)CO)C[C@@H]3O[C@H]1C[C@H](N)[C@H](O)[C@H](C)O1 [Doxorubicin] + Cc1nc(NC(=O)N2CCC[C@H]2C(N)=O)sc1-c1ccnc(C(C)(C)C(F)(F)F)c1 [Alpelisib] (partner 2 µM)
Summary of the method: as §1

Doxorubicin + Olaparib = compound: COc1cccc2c1C(=O)c1c(O)c3c(c(O)c1C2=O)C[C@@](O)(C(=O)CO)C[C@@H]3O[C@H]1C[C@H](N)[C@H](O)[C@H](C)O1 [Doxorubicin] + O=C(c1cc(Cc2n[nH]c(=O)c3ccccc23)ccc1F)N1CCN(C(=O)C2CC2)CC1 [Olaparib] (partner 8 µM)
Summary of the method: as §1

Cell Line | relative viability (BAY61-3606 + Lapatinib; first compound 0.02 µM) | relative viability (BAY61-3606 + Lapatinib; first compound 0.06325 µM) | relative viability (BAY61-3606 + Lapatinib; first compound 0.2 µM) | relative viability (BAY61-3606 + Lapatinib; first compound 0.6325 µM) | relative viability (BAY61-3606 + Lapatinib; first compound 2 µM) | relative viability (Doxorubicin + Tozasertib; first compound 0.001 µM) | relative viability (Doxorubicin + Tozasertib; first compound 0.003162 µM) | relative viability (Doxorubicin + Tozasertib; first compound 0.01 µM) | relative viability (Doxorubicin + Tozasertib; first compound 0.03162 µM) | relative viability (Doxorubicin + Tozasertib; first compound 0.1 µM) | relative viability (Doxorubicin + Alpelisib; first compound 0.001 µM) | relative viability (Doxorubicin + Alpelisib; first compound 0.003162 µM) | relative viability (Doxorubicin + Alpelisib; first compound 0.01 µM) | relative viability (Doxorubicin + Alpelisib; first compound 0.03162 µM) | relative viability (Doxorubicin + Alpelisib; first compound 0.1 µM) | relative viability (Doxorubicin + Olaparib; first compound 0.001 µM) | relative viability (Doxorubicin + Olaparib; first compound 0.003162 µM) | relative viability (Doxorubicin + Olaparib; first compound 0.01 µM) | relative viability (Doxorubicin + Olaparib; first compound 0.03162 µM) | relative viability (Doxorubicin + Olaparib; first compound 0.1 µM)
PC-3 [JPC-3] | 0.468 | 0.482 | 0.478 | 0.436 | 0.471 | 0.887 | 0.888 | 0.915 | 0.866 | 0.856 | 1.02 | 1.02 | 1.05 | 1 | 1.03 | 1.04 | 0.944 | 1.17 | 0.897 | 0.825
PC-14 | 0.367 | 0.278 | 0.357 | 0.339 | 0.377 | 0.598 | 0.573 | 0.599 | 0.59 | 0.487 | 0.892 | 1.01 | 0.963 | 0.986 | 1.01 | 0.239 | 0.257 | 0.203 | 0.0737 | 0.0408
RERF-LC-KJ | 0.935 | 0.741 | 0.859 | 0.814 | 0.709 | 0.538 | 0.406 | 0.398 | 0.233 | 0.233 | 0.815 | 0.885 | 0.893 | 0.675 | 0.719 | 0.906 | 0.784 | 0.55 | 0.3 | 0.261
SK-LU-1 | 0.953 | 0.81 | 0.885 | 0.862 | 0.532 | 0.318 | 0.326 | 0.288 | 0.173 | 0.179 | 1.03 | 0.995 | 0.783 | 0.46 | 0.322 | 0.512 | 0.451 | 0.397 | 0.359 | 0.356
SK-MES-1 | 0.594 | 0.483 | 0.469 | 0.424 | 0.42 | 0.856 | 0.867 | 0.583 | 0.211 | 0.162 | 0.956 | 0.877 | 0.819 | 0.785 | 0.573 | 0.659 | 0.534 | 0.266 | 0.2 | 0.146
SW 1573 | 1.18 | 1.01 | 1.08 | 1.11 | 0.858 | 0.185 | 0.144 | 0.148 | 0.103 | 0.0879 | 0.904 | 0.731 | 0.641 | 0.447 | 0.428 | 0.411 | 0.298 | 0.163 | 0.0977 | 0.047
